Experimental data published in ChEMBL document CHEMBL3885881, “DrugMatrix”.

Species on record: Rattus norvegicus
Assay: DrugMatrix - Regimen: Daily Repeat
Format: toxicity, organism-based, Sprague-Dawley
Parameters: regimen Daily Repeat, gender Male, age 6-8 weeks
Details: in vivo, po, route oral GAVAGE, vehicle .5 % CMC; for ABSOLUTE BASOPHIL / ABSOLUTE EOSINOPHIL / ABSOLUTE LYMPHOCYTE / ABSOLUTE MONOCYTE / ABSOLUTE SEGMENTED NEUTROPHIL / BASOPHIL / EOSINOPHIL / ERYTHROCYTE COUNT / HEMATOCRIT / HEMOGLOBIN / LEUKOCYTE COUNT / LYMPHOCYTE / MEAN CORPUSCULAR HEMOGLOBIN / MEAN CORPUSCULAR HEMOGLOBIN CONCENTRATION / MEAN CORPUSCULAR VOLUME / MONOCYTE / NEUTROPHIL / NUCLEATED RED BLOOD CELLS / PLATELET COUNT: tissue Blood; for ALANINE AMINOTRANSFERASE / ALBUMIN / ALKALINE PHOSPHATASE / ASPARTATE AMINOTRANSFERASE / BLOOD UREA NITROGEN / CARBON DIOXIDE / CHLORIDE / CHOLESTEROL / CREATINE PHOSPHOKINASE / CREATININE / GLUCOSE / LACTATE DEHYDROGENASE / LIPASE / PHOSPHORUS / POTASSIUM / SODIUM / TOTAL BILIRUBIN / TOTAL PROTEIN / URIC ACID: tissue Plasma
[1] = 50 mg/kg, 120 h, dose level Low, time 5 day
[2] = 2500 mg/kg, 72 h, dose level High, time 3 day
[3] = 2500 mg/kg, 120 h, dose level High, time 5 day

Which “ABSOLUTE BASOPHIL” value [1] does the source give for `CC(/C=C1\SC(=S)N(CC(=O)O)C1=O)=C\c1ccccc1` here?
The value was 0 CELLS/uL.

What about the “ABSOLUTE EOSINOPHIL” value [1] of the same molecule?
The value was 0 CELLS/uL.

And the “ABSOLUTE LYMPHOCYTE” value [1]?
The value was 8755.33 CELLS/uL.

What about the “ABSOLUTE MONOCYTE” value [1] of the same molecule?
Its value is 98 CELLS/uL.

What about the “ABSOLUTE SEGMENTED NEUTROPHIL” value [1] of the same molecule?
Its value is 946.67 CELLS/uL.

What about the BASOPHIL [1] of the same molecule?
Its BASOPHIL is 0%.

And the EOSINOPHIL [1]?
Its EOSINOPHIL is 0%.

And the “ERYTHROCYTE COUNT” value [1]?
Its value is 5.47 x10E6/uL.

And the HEMATOCRIT [1]?
The HEMATOCRIT was 34.63%.

What about the HEMOGLOBIN [1] of the same molecule?
Its HEMOGLOBIN is 14.03 G/DL.

And the “LEUKOCYTE COUNT” value [1]?
The value was 9.8 x10E3/uL.

And the LYMPHOCYTE [1]?
The LYMPHOCYTE was 89.67%.

And the “MEAN CORPUSCULAR HEMOGLOBIN” value [1]?
The value was 25.7 pg.

And the “MEAN CORPUSCULAR HEMOGLOBIN CONCENTRATION” value [1]?
Its value is 40.53 G/DL.

What about the “MEAN CORPUSCULAR VOLUME” value [1] of the same molecule?
The value was 63.33 fL.

What about the MONOCYTE [1] of the same molecule?
Its MONOCYTE is 1%.

What about the NEUTROPHIL [1] of the same molecule?
The NEUTROPHIL was 9.33%.

What about the “NUCLEATED RED BLOOD CELLS” value [1] of the same molecule?
The value was 0 /100WBC.

And the “PLATELET COUNT” value [1]?
Its value is 1226 x10E3/uL.

What about the “ALANINE AMINOTRANSFERASE” value [1] of the same molecule?
Its value is 61.33 u/L.

What about the ALBUMIN [1] of the same molecule?
Its ALBUMIN is 4.5 G/DL.

And the “ALKALINE PHOSPHATASE” value [1]?
The value was 418.33 u/L.

And the “ASPARTATE AMINOTRANSFERASE” value [1]?
Its value is 81.33 u/L.

And the “BLOOD UREA NITROGEN” value [1]?
The value was 14.33 mg/dL.

And the “CARBON DIOXIDE” value [1]?
The value was 34 mmol/L.

What about the CHLORIDE [1] of the same molecule?
The CHLORIDE was 100.67 MEQ/L.

And the CHOLESTEROL [1]?
Its CHOLESTEROL is 81 mg/dL.

What about the “CREATINE PHOSPHOKINASE” value [1] of the same molecule?
The value was 171 u/L.

And the CREATININE [1]?
Its CREATININE is 0.12 mg/dL.

What about the GLUCOSE [1] of the same molecule?
Its GLUCOSE is 147.33 mg/dL.

And the “LACTATE DEHYDROGENASE” value [1]?
Its value is 106.67 u/L.

What about the LIPASE [1] of the same molecule?
Its LIPASE is 10 u/L.

And the PHOSPHORUS [1]?
Its PHOSPHORUS is 10.83 mg/dL.

What about the POTASSIUM [1] of the same molecule?
The POTASSIUM was 6.07 MEQ/L.

And the SODIUM [1]?
The SODIUM was 143.73 MEQ/L.

What about the “TOTAL BILIRUBIN” value [1] of the same molecule?
The value was 0.2 mg/dL.

What about the “TOTAL PROTEIN” value [1] of the same molecule?
The value was 6.37 G/DL.

What about the “URIC ACID” value [1] of the same molecule?
Its value is 0.87 mg/dL.

And the “ABSOLUTE BASOPHIL” value [2]?
Its value is 0 CELLS/uL.

What about the “ABSOLUTE EOSINOPHIL” value [2] of the same molecule?
The value was 58.67 CELLS/uL.

What about the “ABSOLUTE LYMPHOCYTE” value [2] of the same molecule?
Its value is 8116.67 CELLS/uL.

What about the “ABSOLUTE MONOCYTE” value [2] of the same molecule?
Its value is 158 CELLS/uL.

What about the “ABSOLUTE SEGMENTED NEUTROPHIL” value [2] of the same molecule?
Its value is 700 CELLS/uL.

What about the BASOPHIL [2] of the same molecule?
The BASOPHIL was 0%.

And the EOSINOPHIL [2]?
The EOSINOPHIL was 0.67%.

What about the “ERYTHROCYTE COUNT” value [2] of the same molecule?
Its value is 6.27 x10E6/uL.

And the HEMATOCRIT [2]?
The HEMATOCRIT was 39%.

And the HEMOGLOBIN [2]?
The HEMOGLOBIN was 15.47 G/DL.

What about the “LEUKOCYTE COUNT” value [2] of the same molecule?
Its value is 9.03 x10E3/uL.

What about the LYMPHOCYTE [2] of the same molecule?
The LYMPHOCYTE was 90%.

And the “MEAN CORPUSCULAR HEMOGLOBIN” value [2]?
Its value is 24.83 pg.

And the “MEAN CORPUSCULAR HEMOGLOBIN CONCENTRATION” value [2]?
Its value is 39.77 G/DL.

What about the “MEAN CORPUSCULAR VOLUME” value [2] of the same molecule?
The value was 62.43 fL.

What about the MONOCYTE [2] of the same molecule?
The MONOCYTE was 1.67%.

And the NEUTROPHIL [2]?
The NEUTROPHIL was 7.67%.

What about the “NUCLEATED RED BLOOD CELLS” value [2] of the same molecule?
Its value is 0 /100WBC.

What about the “PLATELET COUNT” value [2] of the same molecule?
The value was 1417 x10E3/uL.

And the “ALANINE AMINOTRANSFERASE” value [2]?
Its value is 61.33 u/L.

And the ALBUMIN [2]?
The ALBUMIN was 3.93 G/DL.

What about the “ALKALINE PHOSPHATASE” value [2] of the same molecule?
The value was 381 u/L.

And the “ASPARTATE AMINOTRANSFERASE” value [2]?
Its value is 133.33 u/L.

What about the “BLOOD UREA NITROGEN” value [2] of the same molecule?
Its value is 25 mg/dL.

What about the “CARBON DIOXIDE” value [2] of the same molecule?
Its value is 19 mmol/L.

And the CHLORIDE [2]?
The CHLORIDE was 105.33 MEQ/L.

What about the CHOLESTEROL [2] of the same molecule?
The CHOLESTEROL was 46 mg/dL.

What about the “CREATINE PHOSPHOKINASE” value [2] of the same molecule?
Its value is 544.33 u/L.

What about the CREATININE [2] of the same molecule?
The CREATININE was 0.22 mg/dL.

What about the GLUCOSE [2] of the same molecule?
Its GLUCOSE is 130.33 mg/dL.

What about the “LACTATE DEHYDROGENASE” value [2] of the same molecule?
Its value is 248.67 u/L.

What about the LIPASE [2] of the same molecule?
The LIPASE was 9.33 u/L.

What about the PHOSPHORUS [2] of the same molecule?
The PHOSPHORUS was 11.67 mg/dL.

And the POTASSIUM [2]?
The POTASSIUM was 5.57 MEQ/L.

What about the SODIUM [2] of the same molecule?
The SODIUM was 142.23 MEQ/L.

What about the “TOTAL BILIRUBIN” value [2] of the same molecule?
Its value is 0.27 mg/dL.

What about the “TOTAL PROTEIN” value [2] of the same molecule?
Its value is 5.4 G/DL.

What about the “URIC ACID” value [2] of the same molecule?
Its value is 1.83 mg/dL.

And the “ABSOLUTE BASOPHIL” value [3]?
Its value is 0 CELLS/uL.

What about the “ABSOLUTE EOSINOPHIL” value [3] of the same molecule?
The value was 0 CELLS/uL.

And the “ABSOLUTE LYMPHOCYTE” value [3]?
The value was 3825 CELLS/uL.

What about the “ABSOLUTE MONOCYTE” value [3] of the same molecule?
Its value is 102 CELLS/uL.

What about the “ABSOLUTE SEGMENTED NEUTROPHIL” value [3] of the same molecule?
The value was 1173 CELLS/uL.

And the BASOPHIL [3]?
The BASOPHIL was 0%.

And the EOSINOPHIL [3]?
Its EOSINOPHIL is 0%.

What about the “ERYTHROCYTE COUNT” value [3] of the same molecule?
The value was 7.26 x10E6/uL.

What about the HEMATOCRIT [3] of the same molecule?
Its HEMATOCRIT is 41.8%.

What about the HEMOGLOBIN [3] of the same molecule?
The HEMOGLOBIN was 16.5 G/DL.

And the “LEUKOCYTE COUNT” value [3]?
The value was 5.1 x10E3/uL.

And the LYMPHOCYTE [3]?
The LYMPHOCYTE was 75%.

And the “MEAN CORPUSCULAR HEMOGLOBIN” value [3]?
The value was 22.7 pg.

What about the “MEAN CORPUSCULAR HEMOGLOBIN CONCENTRATION” value [3] of the same molecule?
The value was 39.5 G/DL.

And the “MEAN CORPUSCULAR VOLUME” value [3]?
The value was 57.6 fL.

What about the MONOCYTE [3] of the same molecule?
Its MONOCYTE is 2%.

And the NEUTROPHIL [3]?
The NEUTROPHIL was 23%.

And the “NUCLEATED RED BLOOD CELLS” value [3]?
The value was 0 /100WBC.

And the “PLATELET COUNT” value [3]?
The value was 1575 x10E3/uL.

And the “ALANINE AMINOTRANSFERASE” value [3]?
The value was 38 u/L.

What about the ALBUMIN [3] of the same molecule?
The ALBUMIN was 3.9 G/DL.

What about the “ALKALINE PHOSPHATASE” value [3] of the same molecule?
The value was 162 u/L.

What about the “ASPARTATE AMINOTRANSFERASE” value [3] of the same molecule?
Its value is 70 u/L.

What about the “BLOOD UREA NITROGEN” value [3] of the same molecule?
Its value is 24 mg/dL.

And the “CARBON DIOXIDE” value [3]?
The value was 25 mmol/L.

And the CHLORIDE [3]?
The CHLORIDE was 100 MEQ/L.

What about the CHOLESTEROL [3] of the same molecule?
The CHOLESTEROL was 64 mg/dL.

What about the “CREATINE PHOSPHOKINASE” value [3] of the same molecule?
The value was 119 u/L.

And the CREATININE [3]?
The CREATININE was 0.1 mg/dL.

What about the GLUCOSE [3] of the same molecule?
The GLUCOSE was 89 mg/dL.

What about the “LACTATE DEHYDROGENASE” value [3] of the same molecule?
The value was 148 u/L.

And the LIPASE [3]?
Its LIPASE is 7 u/L.

What about the PHOSPHORUS [3] of the same molecule?
Its PHOSPHORUS is 15.2 mg/dL.

And the POTASSIUM [3]?
Its POTASSIUM is 4.09 MEQ/L.

What about the SODIUM [3] of the same molecule?
The SODIUM was 144.1 MEQ/L.

What about the “TOTAL BILIRUBIN” value [3] of the same molecule?
The value was 0.5 mg/dL.

What about the “TOTAL PROTEIN” value [3] of the same molecule?
The value was 5.9 G/DL.

What about the “URIC ACID” value [3] of the same molecule?
Its value is 2.1 mg/dL.
